Results taken from PMC6272399, “Anti-Proliferative Effect and Induction of Apoptosis in Androgen-Independent Human Prostate Cancer Cells by 1,5-Bis(2-hydroxyphenyl)-1,4-pentadiene-3-one” (Molecules, 2015).

Columns and labels:
[1] = tested on: caspase-3 activity in PC-3 cells; test: Caspase-3 colorimetric activity assay, PC-3; type: cell-based, human; conditions: PC-3, all time points, inhibitor control
Experimental: (§1) Caspase-3 activity was determined using the caspase-3 colorimetric assay kit (Sigma-Aldrich) according to manufacturer’s protocol. The assay is based on spectrophotometric detection of p-nitroanilide (pNA) a colored molecule, after its cleavage from the labeled substrate DEVD-pNA by the activity of caspase-3 enzyme. PC-3 and DU 145 cells were treated with MS17 at different concentrations (EC50, 2 × EC50, 3 × EC50) at various time points, 6, 12, 24, 48 and 72 h as appropriate. Following treatment, cells were washed with PBS and suspended with lysis buffer (50 mM HEPES, pH 7.4, 5 mM CHAPS, 5 mM DTT) for 30 min on ice at the concentration of 10^7 cells per 100 µL buffer. Cells were then spun for 30 min at 16,000× g, 4 °C. Protein lysate concentrations were measured based on the Bradford assay method using the Cayman Chemical protein determination kit (Cayman Chemical Company, Ann Arbor, MI, USA) based on the manufacturer’s protocol. Assay was performed on a 96-well micro-titer plate by adding equal amount of protein lysate (~100 µg) into wells containing the assay buffer (20 mM HEPES pH 7.4, 0.1% CHAPS, 5 mM DTT, 2 mM EDTA). Reaction was started by the addition of 10 µL of substrate Ac-DEVD-pNA (2 mM). The effect of Ac-DEVD-CHO, a caspase-3 inhibitor was also studied simultaneously on caspase-3 activity. Ten microliter of the inhibitor (200 µM) was added into the wells containing the protein lysate, assay buffer and the substrate. Caspase-3 activity was measured upon the release of pNA molecule, a pale yellow colored product using the micro-plate ELISA reader (Bio-Rad) at the wavelength of 405 nm. Relative caspase-3 activity was expressed as absorbance of enzyme activity compared with the control (untreated cells/DMSO only) based on the equation below: Relative caspase 3 activity= Absorbance of treated cells /Absorbance of control

[2] = tested on: caspase-3 activity in DU 145 cells; test: Caspase-3 colorimetric activity assay, DU 145; type: cell-based, human; conditions: DU 145, all time points, inhibitor control
Experimental: as §1

DU 145 cells [3] = test: BrdU cell proliferation assay, DU 145; type: cell-based, human; conditions: DU 145, BrdU
Experimental: (§2) The anti-proliferative effects of compound on treated cells, was measured using the BrdU cell proliferation assay kit (Roche Applied Science Diagnostics, Indianapolis, IN, USA) according to the manufacturer’s protocol. The assay was based on incorporation of BrdU during DNA synthesis in proliferating cells. Cells were plated at a concentration of 10^4 cells/mL in a 96-well microtiter plate and incubated overnight. The cells were treated with compounds and curcumin (concentrations ranging from 1.56 µM–100 µM) as positive control for 24, 48 and 72 h respectively. Then, BrdU labeling solution (5 µL, diluted by 1/100 in culture media) was added to each well and incubated for 2 h at 37 °C. The media was replaced with fix/denaturing solution (100 µL) and incubated for 30 min at room temperature. Then, the fix/denaturing solution was removed by tapping off and followed by addition of 50 µL anti-BrdU antibody (50 µL, diluted by 1/100 in dilution buffer) to each well and further incubated for another 90 min at room temperature. Next, the cells were washed 3 times with wash buffer and substrate solution (50 µL) was added to each well. The plate was left for 10 min at room temperature in the dark and the absorbance was measured at a wavelength of 370 nm with a reference wavelength of 492 nm using a micro-plate ELISA reader (Bio-Rad). The percentage of BrdU incorporation was determined based on the ratio of absorbance of sample treated-cells to absorbance of control (untreated cells/DMSO only) multiplied by 100.

PC-3 cells [4] = test: BrdU cell proliferation assay, PC-3; type: cell-based, human; conditions: PC-3, BrdU
Experimental: as §2

DU 145 cells [5] = test: MTT cytotoxicity (cell viability) assay, DU 145; type: cell-based, human; conditions: for dose from which decrease in cell viability is significant: DU 145, MTT, vs untreated; for EC50: Homo sapiens, DU-145, MTT, 72 h treatment, mean ± SD, three experiments, read-out: EC50 Values (µM) of Compounds on Cell Lines DU 145; for Selective index (SX) WI-38 vs DU 145: SX = EC50 (WI-38)/EC50 (DU 145) × 100; for Selective index (SX) WRL68 vs DU 145: SX = EC50 (WRL68)/EC50 (DU 145) × 100
Experimental: (§3) Cell viability was determined by the MTT [3-(4,5-dimethylthiazol-2-yl)-2,5-diphenyltetrazolium bromide] assay, as previously described by Mosmann with modifications. Briefly, cells were detached from the tissue culture flask and pelleted by centrifugation at 1000 rpm for 5 min. Then, the density of the viable cells was counted using a haemocytometer. Cells were then plated in a 96-well flat bottom micro-titer plate (Nunc) at a concentration of 10^4 cells/mL and incubated in a 5% CO2 incubator at 37 °C overnight to allow the cells to adhere to the bottom of the wells. After 24 h, the media was aspirated off and replaced with fresh media containing sample compounds (curcumin and curcumin analogues) of seven different concentrations ranging from 1.56 µM–100 µM and incubated at 37 °C, 5% CO2 for 72 h. Separately, the sample compounds were prepared in a stock solution of 50 mM in 100% dimethyl sulfoxide (DMSO, Molecular Biology Grade, Sigma-Aldrich, St. Louis, MO, USA) and diluted in the culture media to a working concentration of 200 µM. Curcumin, the parent compound which was used as the positive control was also prepared in the similar manner. A two-fold serial dilution was done for each sample in triplicates down the columns of the plate, yielding a final volume and concentration of 100 µL in 0.2% DMSO in each wells. Following treatment, 50 µL MTT solutions (0.5 mg/mL in PBS) was added to each well and incubated for another 4 h at 37 °C in a humidified 5% CO2 incubator. The supernatant was replaced with 100 µL of DMSO and the optical density (OD) was measured at 570/650 nm using a micro-plate ELISA reader (Bio-Rad Laboratories, Hercules, CA, USA). The percentage of viable cells was calculated based on the ratio of the corrected absorbance of sample-treated cells to the corrected absorbance of the control (0.2% DMSO-treated cells) multiplied by 100. The percentage of cell viability was determined as follows: % Cell viability= OD of treated cells /OD of control ×100
(§4) For each compound tested, the EC50 value was generated from the log dose-response curves for each cell line using the Graphpad Prism version 5.04 for Windows (Graphpad Software, La Jolla, CA, USA). […] Cytotoxicity of each tested compound is expressed as the EC50 value. Based on the EC50 values, selectivity index (SX) value was also determined. Selectivity index is a special parameter applied as a selectivity indicator of tested compounds towards cancer cells. The SX represents the ratio of EC50 value obtained in toxicity testing using the normal cell lines to the EC50 values of the toxicity testing of the cancer cells, and then multiplied by 100. All the compounds were assessed for their potential toxicity against normal, non-cancerous cells. […] The SX values were calculated using the following equation: SX = EC50 (normal cells)/EC50 (cancer cells) × 100

PC-3 cells [6] = test: MTT cytotoxicity (cell viability) assay, PC-3; type: cell-based, human; conditions: for EC50: Homo sapiens, PC-3, MTT, 72 h treatment, mean ± SD, three experiments, read-out: EC50 Values (µM) of Compounds on Cell Lines PC-3; for dose from which decrease in cell viability is significant: PC-3, MTT, vs untreated; for Selective index (SX) WI-38 vs PC-3: SX = EC50 (WI-38)/EC50 (PC-3) × 100; for Selective index (SX) WRL68 vs PC-3: SX = EC50 (WRL68)/EC50 (PC-3) × 100
Experimental: as §3, §4

[7] = tested on: WRL 68 (human epithelial hepatocytes); test: MTT cytotoxicity assay, normal WRL 68; type: cell-based; conditions: WRL68, normal cell line, 72 h treatment, mean ± SD, read-out: EC50 Values (µM) of Compounds on Cell Lines WRL-68
Experimental: as §3, §4

[8] = tested on: WI-38 (human lung fibroblast cells); test: MTT cytotoxicity assay, normal WI-38; type: cell-based; conditions: normal cell line, 72 h treatment, mean ± SD, read-out: EC50 Values (µM) of Compounds on Cell Lines WI-38
Experimental: as §3, §4

Compound: Ac-DEVD-CHO [reference compound]
- relative caspase-3 activity with caspase-3 inhibitor [1]: relatively low expression levels
- relative caspase-3 activity with caspase-3 inhibitor [2]: relatively low expression levels

Compound: O=C1C(=Cc2cccc(F)c2)CCCC1=Cc1cccc(F)c1 [MS49, 2,6-bis(3-fluorobenzylidene)cyclohexanone]
- concentration from which anti-proliferative activity is significant (DU 145 cells [3]; 24 h): 25 µM
- concentration from which anti-proliferative activity is significant (DU 145 cells [3]; 48 h): 25 µM
- concentration from which anti-proliferative activity is significant (DU 145 cells [3]; 72 h): 50 µM
- concentration from which anti-proliferative activity is significant (PC-3 cells [4]; 24 h): 25 µM
- concentration from which anti-proliferative activity is significant (PC-3 cells [4]; 48 h): 25 µM
- concentration from which anti-proliferative activity is significant (PC-3 cells [4]; 72 h): 25 µM
- dose from which decrease in cell viability is significant (DU 145 cells [5]): 25 µM
- EC50 (DU 145 cells [5]): 12.3 ± 2.3 µM
- Selective index (SX) WI-38 vs DU 145 (DU 145 cells [5]): 158.6
- Selective index (SX) WRL68 vs DU 145 (DU 145 cells [5]): 106.8
- EC50 (PC-3 cells [6]): 14.5 ± 1.2 µM
- dose from which decrease in cell viability is significant (PC-3 cells [6]): 12.5 µM
- Selective index (SX) WI-38 vs PC-3 (PC-3 cells [6]): 134.3
- Selective index (SX) WRL68 vs PC-3 (PC-3 cells [6]): 90.4
- EC50 [7]: 13.1 ± 0.4 µM
- EC50 [8]: 19.4 ± 7 µM

Compound: COc1cc(/C=C/C(=O)CC(=O)/C=C/c2ccc(O)c(OC)c2)ccc1O [Curcumin, diferuloylmethane, reference compound]
- concentration from which anti-proliferative activity is significant (DU 145 cells [3]; 24 h): 50 µM
- concentration from which anti-proliferative activity is significant (DU 145 cells [3]; 48 h): 50 µM
- concentration from which anti-proliferative activity is significant (DU 145 cells [3]; 72 h): 50 µM
- concentration from which anti-proliferative activity is significant (PC-3 cells [4]; 24 h): 50 µM
- concentration from which anti-proliferative activity is significant (PC-3 cells [4]; 48 h): 50 µM
- concentration from which anti-proliferative activity is significant (PC-3 cells [4]; 72 h): 50 µM
- dose from which decrease in cell viability is significant (DU 145 cells [5]): 50 µM
- EC50 (DU 145 cells [5]): 32.5 ± 1.4 µM
- Selective index (SX) WI-38 vs DU 145 (DU 145 cells [5]): 85.8
- Selective index (SX) WRL68 vs DU 145 (DU 145 cells [5]): 88.2
- EC50 (PC-3 cells [6]): 35.9 ± 2.9 µM
- dose from which decrease in cell viability is significant (PC-3 cells [6]): 50 µM
- Selective index (SX) WI-38 vs PC-3 (PC-3 cells [6]): 77.5
- Selective index (SX) WRL68 vs PC-3 (PC-3 cells [6]): 79.8
- EC50 [7]: 28.7 ± 3.2 µM
- EC50 [8]: 27.9 ± 2.9 µM

Compound: COc1cc(C=CC(=O)C=Cc2ccc(O)c(OC)c2)ccc1O [MS13, 1,5-bis(4-hydroxy-3-methoxyphenyl)-1,4-pentadiene-3-one]
- concentration from which anti-proliferative activity is significant (DU 145 cells [3]; 24 h): 12.5 µM
- concentration from which anti-proliferative activity is significant (DU 145 cells [3]; 48 h): 12.5 µM
- concentration from which anti-proliferative activity is significant (DU 145 cells [3]; 72 h): 25 µM
- concentration from which anti-proliferative activity is significant (PC-3 cells [4]; 24 h): 12.5 µM
- concentration from which anti-proliferative activity is significant (PC-3 cells [4]; 48 h): 12.5 µM
- concentration from which anti-proliferative activity is significant (PC-3 cells [4]; 72 h): 12.5 µM
- dose from which decrease in cell viability is significant (DU 145 cells [5]): 12.5 µM
- EC50 (DU 145 cells [5]): 7.4 ± 2.6 µM
- Selective index (SX) WI-38 vs DU 145 (DU 145 cells [5]): 127.2
- Selective index (SX) WRL68 vs DU 145 (DU 145 cells [5]): 117.3
- EC50 (PC-3 cells [6]): 7.5 ± 0.1 µM
- dose from which decrease in cell viability is significant (PC-3 cells [6]): 6.3 µM
- Selective index (SX) WI-38 vs PC-3 (PC-3 cells [6]): 124.8
- Selective index (SX) WRL68 vs PC-3 (PC-3 cells [6]): 115.1
- EC50 [7]: 8.7 ± 0.2 µM
- EC50 [8]: 9.4 ± 2.3 µM

Compound: O=C(C=Cc1cccc(F)c1)C=Cc1cccc(F)c1 [MS40E, 1,5-bis(3-fluorophenyl)-1,4-pentadiene-3-one]
- concentration from which anti-proliferative activity is significant (DU 145 cells [3]; 24 h): 50 µM
- concentration from which anti-proliferative activity is significant (DU 145 cells [3]; 48 h): 50 µM
- concentration from which anti-proliferative activity is significant (DU 145 cells [3]; 72 h): 50 µM
- concentration from which anti-proliferative activity is significant (PC-3 cells [4]; 24 h): 50 µM
- concentration from which anti-proliferative activity is significant (PC-3 cells [4]; 48 h): 50 µM
- concentration from which anti-proliferative activity is significant (PC-3 cells [4]; 72 h): 50 µM
- dose from which decrease in cell viability is significant (DU 145 cells [5]): 50 µM
- EC50 (DU 145 cells [5]): 30.3 ± 1.9 µM
- Selective index (SX) WI-38 vs DU 145 (DU 145 cells [5]): 93.5
- Selective index (SX) WRL68 vs DU 145 (DU 145 cells [5]): 100.0
- EC50 (PC-3 cells [6]): 28 ± 7.8 µM
- dose from which decrease in cell viability is significant (PC-3 cells [6]): 50 µM
- Selective index (SX) WI-38 vs PC-3 (PC-3 cells [6]): 101.4
- Selective index (SX) WRL68 vs PC-3 (PC-3 cells [6]): 108.3
- EC50 [7]: 30.3 ± 2 µM
- EC50 [8]: 28.4 ± 1.7 µM
